Experimental data reported in ChEMBL document CHEMBL1201862, “PubChem BioAssay data set” (2004).
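Results reflect a 48-hour exposure of cells in 96-well plates to compound at five concentrations. The concentration for 50% growth inhibition is given as GI50.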 Activity calls are given as the source filed them. No stated cut-off is given here; in the data, active = GI50 up to about 1.1 µM and inactive = higher.

Columns and labels:
Experiment in all cases: NCI anticancer screen, dose series, 48 h
MDA-N = test system: MDA-N
HL-60 = test system: HL-60
RXF 393 = test system: RXF 393
MDA-MB-435 = test system: MDA-MB-435
SF-539 = test system: SF-539
HCT-116 = test system: HCT-116
SNB-19 = test system: SNB-19
RPMI-8226 = test system: RPMI-8226
HOP-92 = test system: HOP-92
SK-MEL-2 = test system: SK-MEL-2
786-0 = test system: 786-0
COLO 205 = test system: COLO 205
HT-29 = test system: HT-29
OVCAR-8 = test system: OVCAR-8
SK-OV-3 = test system: SK-OV-3
NCI/ADR-RES = test system: NCI/ADR-RES
OVCAR-3 = test system: OVCAR-3
A549 = test system: A549
CCRF-CEM = test system: CCRF-CEM
A498 = test system: A498
IGROV-1 = test system: IGROV-1
UACC-257 = test system: UACC-257
K562 = test system: K562
Hs-578T = test system: Hs-578T
ACHN = test system: ACHN
M14 = test system: M14
BT-549 = test system: BT-549
TK-10 = test system: TK-10
SNB-75 = test system: SNB-75
OVCAR-5 = test system: OVCAR-5
SR = test system: SR
MOLT-4 = test system: MOLT-4
LOX IMVI = test system: LOX IMVI
SF-295 = test system: SF-295
SF-268 = test system: SF-268
HCC 2998 = test system: HCC 2998
NCI-H522 = test system: NCI-H522
PC-3 = test system: PC-3
DU-145 = test system: DU-145
MCF7 = test system: MCF7
T47D = test system: T47D
CAKI-1 = test system: CAKI-1
NCI-H460 = test system: NCI-H460
HOP-62 = test system: HOP-62
Malme-3M = test system: Malme-3M
SN12C = test system: SN12C
SW-620 = test system: SW-620
EKVX = test system: EKVX
UACC-62 = test system: UACC-62
UO-31 = test system: UO-31
KM12 = test system: KM12
HCT-15 = test system: HCT-15
SK-MEL-5 = test system: SK-MEL-5
MDA-MB-231 = test system: MDA-MB-231
NCI-H23 = test system: NCI-H23
SK-MEL-28 = test system: SK-MEL-28
U-251 = test system: U-251
NCI-H226 = test system: NCI-H226
OVCAR-4 = test system: OVCAR-4

`CO[C@]12S[C@@H]3CCCC[C@@]31C(C)(C)C(=O)N2c1ccccc1` was tested, and the GI50 (MDA-N) was 42.2 µM (inactive), the GI50 (HL-60) was 14.6 µM (inactive) and the GI50 (RXF 393) was 49.5 µM (inactive). For the same molecule, the GI50 (MDA-MB-435) was 33.7 µM (inactive), the GI50 (SF-539) was 4.11 µM (inactive) and the GI50 (HCT-116) was 33.2 µM (inactive). For the same molecule, the GI50 (SNB-19) was > 100 µM (inactive), the GI50 (RPMI-8226) was 24.7 µM (inactive) and the GI50 (HOP-92) was 38 µM (inactive). The GI50 (SK-MEL-2) was 26.8 µM (inactive), the GI50 (786-0) was 43.2 µM (inactive) and the GI50 (COLO 205) was 14.4 µM (inactive). The GI50 (HT-29) was 47.4 µM (inactive), the GI50 (OVCAR-8) was 30.1 µM (inactive) and the GI50 (SK-OV-3) was 25.8 µM (inactive). For the same molecule, the GI50 (NCI/ADR-RES) was 23 µM (inactive), the GI50 (OVCAR-3) was 15.2 µM (inactive) and the GI50 (A549) was 67.3 µM (inactive). For the same molecule, the GI50 (CCRF-CEM) was 13.5 µM (inactive), the GI50 (A498) was > 100 µM (inactive) and the GI50 (IGROV-1) was 46.2 µM (inactive). The GI50 (UACC-257) was 33.8 µM (inactive), the GI50 (K562) was 29.7 µM (inactive) and the GI50 (Hs-578T) was 75 µM (inactive). For the same molecule, the GI50 (ACHN) was 37.4 µM (inactive), the GI50 (M14) was 70 µM (inactive) and the GI50 (BT-549) was 27.4 µM (inactive). For the same molecule, the GI50 (TK-10) was 55.5 µM (inactive), the GI50 (SNB-75) was 51.5 µM (inactive) and the GI50 (OVCAR-5) was > 100 µM (inactive). For the same molecule, the GI50 (SR) was 28.5 µM (inactive), the GI50 (MOLT-4) was 21.7 µM (inactive) and the GI50 (LOX IMVI) was 32.6 µM (inactive). The GI50 (SF-295) was 16 µM (inactive), the GI50 (SF-268) was 37.9 µM (inactive) and the GI50 (HCC 2998) was 51.2 µM (inactive). The GI50 (NCI-H522) was 27.6 µM (inactive), the GI50 (PC-3) was 23.6 µM (inactive) and the GI50 (DU-145) was 55.3 µM (inactive). The GI50 (MCF7) was 27.4 µM (inactive), the GI50 (T47D) was 30.7 µM (inactive) and the GI50 (CAKI-1) was 48.5 µM (inactive). For the same molecule, the GI50 (NCI-H460) was 33 µM (inactive), the GI50 (HOP-62) was 16.7 µM (inactive) and the GI50 (Malme-3M) was > 100 µM (inactive). The GI50 (SN12C) was 18.4 µM (inactive), the GI50 (SW-620) was 30.4 µM (inactive) and the GI50 (EKVX) was 55.7 µM (inactive). The GI50 (UACC-62) was 49.8 µM (inactive), the GI50 (UO-31) was 91.4 µM (inactive) and the GI50 (KM12) was 36.7 µM (inactive). The GI50 (HCT-15) was 29.1 µM, the GI50 (SK-MEL-5) was 20.5 µM (inactive) and the GI50 (MDA-MB-231) was 42.2 µM (inactive). The GI50 (NCI-H23) was 28.8 µM (inactive), the GI50 (SK-MEL-28) was 75.5 µM (inactive) and the GI50 (U-251) was 26.6 µM (inactive).
`COC(=O)c1c(C(=O)OC)c(C(c2ccccc2)c2ccccc2)n(-c2ccccc2)c1Cl` was tested, and the GI50 (MDA-N) was > 10 µM (inactive), the GI50 (HL-60) was 4.06 µM (inactive) and the GI50 (NCI-H226) was > 10 µM (inactive). For the same molecule, the GI50 (RXF 393) was > 10 µM (inactive), the GI50 (MDA-MB-435) was 7.16 µM (inactive) and the GI50 (SF-539) was > 10 µM (inactive). The GI50 (HCT-116) was 3.7 µM (inactive), the GI50 (SNB-19) was > 10 µM (inactive) and the GI50 (RPMI-8226) was 3.35 µM (inactive). For the same molecule, the GI50 (HOP-92) was 9.14 µM (inactive), the GI50 (786-0) was > 10 µM (inactive) and the GI50 (COLO 205) was 6.03 µM (inactive). For the same molecule, the GI50 (HT-29) was 4.61 µM (inactive), the GI50 (OVCAR-8) was > 10 µM (inactive) and the GI50 (NCI/ADR-RES) was 4.24 µM (inactive). The GI50 (OVCAR-3) was 5.66 µM (inactive), the GI50 (A549) was 7.03 µM (inactive) and the GI50 (CCRF-CEM) was 4.61 µM (inactive). The GI50 (A498) was > 10 µM (inactive), the GI50 (IGROV-1) was > 10 µM (inactive) and the GI50 (UACC-257) was 7.14 µM (inactive). For the same molecule, the GI50 (K562) was 4.14 µM (inactive), the GI50 (Hs-578T) was 3.43 µM (inactive) and the GI50 (ACHN) was 6.25 µM (inactive). The GI50 (M14) was > 10 µM (inactive), the GI50 (BT-549) was 7.16 µM (inactive) and the GI50 (TK-10) was > 10 µM (inactive). The GI50 (OVCAR-5) was > 10 µM (inactive), the GI50 (SR) was 3.17 µM (inactive) and the GI50 (MOLT-4) was 2.24 µM (inactive). For the same molecule, the GI50 (SF-295) was 5 µM (inactive), the GI50 (SF-268) was > 10 µM (inactive) and the GI50 (HCC 2998) was > 10 µM (inactive). The GI50 (PC-3) was 3.09 µM (inactive), the GI50 (DU-145) was > 10 µM (inactive) and the GI50 (MCF7) was 7.76 µM (inactive). For the same molecule, the GI50 (T47D) was 4.74 µM (inactive), the GI50 (CAKI-1) was > 10 µM (inactive) and the GI50 (NCI-H460) was > 10 µM (inactive). The GI50 (HOP-62) was > 10 µM (inactive), the GI50 (Malme-3M) was 5.79 µM (inactive) and the GI50 (SN12C) was > 10 µM (inactive). The GI50 (SW-620) was 7.43 µM (inactive), the GI50 (EKVX) was 5.75 µM (inactive) and the GI50 (UACC-62) was 9.33 µM (inactive). For the same molecule, the GI50 (UO-31) was 3.81 µM (inactive), the GI50 (KM12) was 4.69 µM (inactive) and the GI50 (OVCAR-4) was 6.49 µM (inactive). For the same molecule, the GI50 (HCT-15) was 5.5 µM, the GI50 (SK-MEL-5) was > 10 µM (inactive) and the GI50 (MDA-MB-231) was > 10 µM (inactive). For the same molecule, the GI50 (NCI-H23) was 6.76 µM (inactive), the GI50 (SK-MEL-28) was > 10 µM (inactive) and the GI50 (U-251) was 6.73 µM (inactive).
For `O=c1cc(-c2ccccc2)[nH]c2ccc(N3CCCCC3)cc12`, the GI50 (MDA-N) was < 0.01 µM (active), the GI50 (HL-60) was < 0.0126 µM (active) and the GI50 (NCI-H226) was 0.0193 µM (active). The GI50 (RXF 393) was < 0.0191 µM (active), the GI50 (MDA-MB-435) was < 0.01 µM (active) and the GI50 (SF-539) was < 0.0159 µM (active). The GI50 (HCT-116) was < 0.0184 µM (active), the GI50 (SNB-19) was 0.0347 µM (active) and the GI50 (RPMI-8226) was 0.0333 µM (active). The GI50 (HOP-92) was < 0.01 µM (active), the GI50 (SK-MEL-2) was 0.0476 µM (active) and the GI50 (786-0) was 0.0364 µM (active). The GI50 (COLO 205) was 0.017 µM (active), the GI50 (HT-29) was 0.0566 µM (active) and the GI50 (OVCAR-8) was 0.0462 µM (active). For the same molecule, the GI50 (SK-OV-3) was 0.0368 µM (active), the GI50 (NCI/ADR-RES) was 0.0204 µM (active) and the GI50 (OVCAR-3) was 0.0166 µM (active). The GI50 (A549) was 0.0488 µM (active), the GI50 (CCRF-CEM) was < 0.0161 µM (active) and the GI50 (IGROV-1) was 0.0506 µM (active). For the same molecule, the GI50 (UACC-257) was 42.6 µM (inactive), the GI50 (K562) was < 0.0129 µM (active) and the GI50 (Hs-578T) was < 0.0152 µM (active). The GI50 (ACHN) was 0.048 µM (active), the GI50 (M14) was 0.0166 µM (active) and the GI50 (BT-549) was 40.9 µM (inactive). The GI50 (TK-10) was 0.998 µM (active), the GI50 (OVCAR-5) was 4.35 µM (inactive) and the GI50 (SR) was 0.0172 µM (active). The GI50 (MOLT-4) was 0.0605 µM (active), the GI50 (LOX IMVI) was 0.0465 µM (active) and the GI50 (SF-295) was < 0.0117 µM (active). The GI50 (SF-268) was 0.228 µM (active), the GI50 (HCC 2998) was < 0.0224 µM (active) and the GI50 (NCI-H522) was 0.0133 µM (active). The GI50 (PC-3) was 0.0297 µM (active), the GI50 (DU-145) was 0.0468 µM (active) and the GI50 (MCF7) was 0.0428 µM (active). For the same molecule, the GI50 (T47D) was > 100 µM (inactive), the GI50 (CAKI-1) was < 0.0221 µM (active) and the GI50 (NCI-H460) was 0.0306 µM (active). For the same molecule, the GI50 (HOP-62) was 0.0305 µM (active), the GI50 (Malme-3M) was > 100 µM (inactive) and the GI50 (SN12C) was 0.0373 µM (active). The GI50 (SW-620) was 0.0468 µM (active), the GI50 (EKVX) was > 100 µM (inactive) and the GI50 (UACC-62) was < 0.01 µM (active). For the same molecule, the GI50 (UO-31) was > 10 µM (inactive), the GI50 (KM12) was 0.0142 µM (active) and the GI50 (OVCAR-4) was > 100 µM (inactive). The GI50 (HCT-15) was 0.0329 µM, the GI50 (SK-MEL-5) was < 0.0153 µM (active) and the GI50 (MDA-MB-231) was 0.0501 µM (active). For the same molecule, the GI50 (NCI-H23) was 0.023 µM (active), the GI50 (SK-MEL-28) was 0.0267 µM (active) and the GI50 (U-251) was 0.0171 µM (active).
